# Results reported in PubChem BioAssay (NCI).
#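 Growth conditions: 96-well plates. Treatment: test compound, 48 hours, 5 concentrations. Analysis: linear interpolation between bracketing concentrations; unreached endpoints set to highest concentration. GI50 marks 50% less growth. The concentration for full growth arrest is given as TGI.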
# Assays:
# Assay in all cases: NCI-60 cell line screen, 48 h
# 786-0 renal = system: 786-0 renal
# A498 renal = system: A498 renal
# A549 NSCLC = system: A549 NSCLC
# ACHN renal = system: ACHN renal
# BT-549 breast = system: BT-549 breast
# CAKI-1 renal = system: CAKI-1 renal
# CCRF-CEM leukemia = system: CCRF-CEM leukemia
# COLO 205 colon = system: COLO 205 colon
# DU-145 prostate = system: DU-145 prostate
# HCC-2998 colon = system: HCC-2998 colon
# HCT-116 colon = system: HCT-116 colon
# HCT-15 colon = system: HCT-15 colon
# HL-60(TB) leukemia = system: HL-60(TB) leukemia
# HOP-62 NSCLC = system: HOP-62 NSCLC
# HS 578T breast = system: HS 578T breast
# HT29 colon = system: HT29 colon
# IGROV1 ovarian = system: IGROV1 ovarian
# K-562 leukemia = system: K-562 leukemia
# KM12 colon = system: KM12 colon
# LOX IMVI melanoma = system: LOX IMVI melanoma
# M14 melanoma = system: M14 melanoma
# MALME-3M melanoma = system: MALME-3M melanoma
# MCF7 breast = system: MCF7 breast
# MDA-MB-231 breast = system: MDA-MB-231 breast
# MDA-MB-435 = system: MDA-MB-435
# MOLT-4 leukemia = system: MOLT-4 leukemia
# NCI-H226 lung = system: NCI-H226 lung
# NCI-H23 lung = system: NCI-H23 lung
# NCI-H460 lung = system: NCI-H460 lung
# NCI-H522 lung = system: NCI-H522 lung
# NCI/ADR-RES ovarian = system: NCI/ADR-RES ovarian
# OVCAR-3 ovarian = system: OVCAR-3 ovarian
# OVCAR-4 ovarian = system: OVCAR-4 ovarian
# OVCAR-5 ovarian = system: OVCAR-5 ovarian
# OVCAR-8 ovarian = system: OVCAR-8 ovarian
# PC-3 prostate = system: PC-3 prostate
# RPMI-8226 leukemia = system: RPMI-8226 leukemia
# RXF 393 renal = system: RXF 393 renal
# SF-268 CNS = system: SF-268 CNS
# SF-539 CNS = system: SF-539 CNS
# SK-MEL-2 melanoma = system: SK-MEL-2 melanoma
# SK-MEL-28 melanoma = system: SK-MEL-28 melanoma
# SK-MEL-5 melanoma = system: SK-MEL-5 melanoma
# SK-OV-3 ovarian = system: SK-OV-3 ovarian
# SN12C renal = system: SN12C renal
# SNB-19 CNS = system: SNB-19 CNS
# SNB-75 CNS = system: SNB-75 CNS
# SR leukemia = system: SR leukemia
# SW-620 colon = system: SW-620 colon
# T-47D breast = system: T-47D breast
# TK-10 renal = system: TK-10 renal
# U251 CNS = system: U251 CNS
# UACC-257 melanoma = system: UACC-257 melanoma
# UACC-62 melanoma = system: UACC-62 melanoma
# UO-31 renal = system: UO-31 renal
smiles,measurement,setting,value
COc1ccc(-c2nc(-c3nc4cc(C)c(C)cc4[nH]3)cc3c2[nH]c2ccccc23)cc1,GI50,786-0 renal,2.6 µM
same,TGI,786-0 renal,5.93 µM
same,GI50,A498 renal,14.4 µM
same,TGI,A498 renal,42.4 µM
same,GI50,A549 NSCLC,3.94 µM
same,TGI,A549 NSCLC,> 100 µM
same,GI50,ACHN renal,2.6 µM
same,TGI,ACHN renal,27.9 µM
same,GI50,BT-549 breast,2.96 µM
same,TGI,BT-549 breast,8.21 µM
same,GI50,CAKI-1 renal,2.44 µM
same,TGI,CAKI-1 renal,44.5 µM
same,GI50,CCRF-CEM leukemia,2.51 µM
same,TGI,CCRF-CEM leukemia,7.56 µM
same,GI50,COLO 205 colon,1.79 µM
same,TGI,COLO 205 colon,3.8 µM
same,GI50,DU-145 prostate,8.53 µM
same,TGI,DU-145 prostate,> 100 µM
same,GI50,HCC-2998 colon,3.88 µM
same,TGI,HCC-2998 colon,94.8 µM
same,GI50,HCT-116 colon,3.22 µM
same,TGI,HCT-116 colon,13 µM
same,GI50,HCT-15 colon,2.68 µM
same,TGI,HCT-15 colon,72.5 µM
same,GI50,HL-60(TB) leukemia,2.59 µM
same,TGI,HL-60(TB) leukemia,5.96 µM
same,GI50,HOP-62 NSCLC,7.63 µM
same,TGI,HOP-62 NSCLC,> 100 µM
same,GI50,HS 578T breast,4.6 µM
same,TGI,HS 578T breast,> 100 µM
same,GI50,HT29 colon,3.76 µM
same,TGI,HT29 colon,> 100 µM
same,GI50,IGROV1 ovarian,9.99 µM
same,TGI,IGROV1 ovarian,> 100 µM
same,GI50,K-562 leukemia,3.36 µM
same,TGI,K-562 leukemia,20.9 µM
same,GI50,KM12 colon,3.5 µM
same,TGI,KM12 colon,24.9 µM
same,GI50,LOX IMVI melanoma,3.08 µM
same,TGI,LOX IMVI melanoma,11.2 µM
same,GI50,M14 melanoma,4.16 µM
same,TGI,M14 melanoma,24.8 µM
same,GI50,MALME-3M melanoma,4.6 µM
same,TGI,MALME-3M melanoma,16.5 µM
same,GI50,MCF7 breast,3.22 µM
same,TGI,MCF7 breast,59.7 µM
same,GI50,MDA-MB-231 breast,2.54 µM
same,TGI,MDA-MB-231 breast,7.76 µM
same,GI50,MDA-MB-435,3.97 µM
same,TGI,MDA-MB-435,> 100 µM
same,GI50,MOLT-4 leukemia,2.37 µM
same,TGI,MOLT-4 leukemia,6.46 µM
same,GI50,NCI-H226 lung,3.32 µM
same,TGI,NCI-H226 lung,54.8 µM
same,GI50,NCI-H23 lung,11 µM
same,TGI,NCI-H23 lung,68.2 µM
same,GI50,NCI-H460 lung,3.49 µM
same,TGI,NCI-H460 lung,> 100 µM
same,GI50,NCI-H522 lung,3 µM
same,TGI,NCI-H522 lung,13.5 µM
same,GI50,NCI/ADR-RES ovarian,6.37 µM
same,TGI,NCI/ADR-RES ovarian,> 100 µM
same,GI50,OVCAR-3 ovarian,2.25 µM
same,TGI,OVCAR-3 ovarian,4.6 µM
same,GI50,OVCAR-4 ovarian,6.98 µM
same,TGI,OVCAR-4 ovarian,> 100 µM
same,GI50,OVCAR-5 ovarian,4.01 µM
same,TGI,OVCAR-5 ovarian,> 100 µM
same,GI50,OVCAR-8 ovarian,3.46 µM
same,TGI,OVCAR-8 ovarian,> 100 µM
same,GI50,PC-3 prostate,2.77 µM
same,TGI,PC-3 prostate,44 µM
same,GI50,RPMI-8226 leukemia,1.77 µM
same,TGI,RPMI-8226 leukemia,5.16 µM
same,GI50,RXF 393 renal,1.72 µM
same,TGI,RXF 393 renal,3.66 µM
same,GI50,SF-268 CNS,12.7 µM
same,TGI,SF-268 CNS,> 100 µM
same,GI50,SF-539 CNS,1.72 µM
same,TGI,SF-539 CNS,4.24 µM
same,GI50,SK-MEL-2 melanoma,3.28 µM
same,TGI,SK-MEL-2 melanoma,8.25 µM
same,GI50,SK-MEL-28 melanoma,2.89 µM
same,TGI,SK-MEL-28 melanoma,10.5 µM
same,GI50,SK-MEL-5 melanoma,2.9 µM
same,TGI,SK-MEL-5 melanoma,12.6 µM
same,GI50,SK-OV-3 ovarian,13 µM
same,TGI,SK-OV-3 ovarian,48.1 µM
same,GI50,SN12C renal,5.54 µM
same,TGI,SN12C renal,> 100 µM
same,GI50,SNB-19 CNS,68.9 µM
same,TGI,SNB-19 CNS,> 100 µM
same,GI50,SNB-75 CNS,3.44 µM
same,TGI,SNB-75 CNS,35 µM
same,GI50,SR leukemia,2.33 µM
same,TGI,SR leukemia,7.17 µM
same,GI50,SW-620 colon,7.54 µM
same,TGI,SW-620 colon,> 100 µM
same,GI50,T-47D breast,3.09 µM
same,TGI,T-47D breast,7.92 µM
same,GI50,TK-10 renal,7.85 µM
same,TGI,TK-10 renal,> 100 µM
same,GI50,U251 CNS,3.04 µM
same,TGI,U251 CNS,16.6 µM
same,GI50,UACC-257 melanoma,3.47 µM
same,TGI,UACC-257 melanoma,14.4 µM
same,GI50,UACC-62 melanoma,2.25 µM
same,TGI,UACC-62 melanoma,6.7 µM
same,GI50,UO-31 renal,2.53 µM
same,TGI,UO-31 renal,52.5 µM
